Results taken from patent US11634396B2 (priority 2021, dated 2023).

What follows are compounds tested against human mOR (Homo sapiens (Human), UniProt P35372) (assay: cell-based). Settings: not given.
Procedure: CHO Tag-lite human mOR stable cell line from Cisbio (NCBI accession number: NM_000914.3, Bedford, Mass.) were seeded and grown to approximately 80% confluence in Ham F-12 with 10% FBS, 50 U/ml penicillin, 50 μg/ml streptomycin, 2 mM Hepes, and 1 mg/ml geneticin (Invitrogen, Carlsbad, Calif.). Cells were then harvested using accutase (Corning. Coming, N.Y.), centrifuged at 1300 RPM for 5 min, and plated at 5000 cells per 5 μL per well in a 5× dilution of stimulation buffer consisting of the HTRF cAMP Gi kit, water and IBMX at 0.5 mM (Cisbio, Bedford, Mass.) in white HTRF low volume 384 well plates (Cisbio, Bedford, Mass.). Plates were then incubated at 37° C. in 5% CO2 for 10 minutes. For the agonist assay, forskolin was added to a final concentration of 4 μM. […] Test compounds were dissolved in DMSO and water, and then serially diluted to working concentrations such that the concentration of DMSO was less than 0.1%. Diluted test compounds were added at 2.5 μL per well, and plates were incubated at 37° C., and 5% CO2 for 15 minutes, and then at room temperature for 15 minutes. Next 5 μl/well of cAMP Eu-cryptate and 5 μl/well of anti-cAMP-d2 (both diluted 1:20 in lysis buffer) were added, and plates were incubated at room temperature for 1 hour. Following incubation, plates were read in a Synergy Neo2 multi-mode reader (Biotek, Winooski, Vt.). […] For the agonist assay, data was normalized using the maximal DAMGO response. Measurements were performed in triplicate and the dose response was fit using nonlinear regression.

Chain of human mOR (P35372 whole entry): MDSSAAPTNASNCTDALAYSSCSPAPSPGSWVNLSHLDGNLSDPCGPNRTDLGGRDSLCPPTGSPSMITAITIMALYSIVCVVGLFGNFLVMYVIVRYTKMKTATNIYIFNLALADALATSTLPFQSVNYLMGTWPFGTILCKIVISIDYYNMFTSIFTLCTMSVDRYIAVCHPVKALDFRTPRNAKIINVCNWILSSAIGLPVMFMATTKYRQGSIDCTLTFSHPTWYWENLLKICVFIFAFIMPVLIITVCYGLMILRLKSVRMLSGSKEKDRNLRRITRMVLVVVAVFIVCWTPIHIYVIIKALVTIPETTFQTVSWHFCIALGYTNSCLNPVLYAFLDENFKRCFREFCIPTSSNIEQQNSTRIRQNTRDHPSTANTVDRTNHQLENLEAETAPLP

| SMILES | IC50 |
| --- | --- |
| CNC(=O)c1ccc(C[C@@H](CNC(=O)C[C@H](c2cncc(Cl)c2)C2(C(F)(F)F)CC2)N(C)C)c(Cl)c1 [Compound 114, 3-chloro-4-((S)-3-((R)-3-(5-chloropyridin-3-yl)-3-(1-(trifluoromethyl)cyclopropyl)propanamido)-2-(dimethylamino)propyl)-N-methylbenzamide] | < 300 nM |
| CNC(=O)c1ccc(C[C@@H](CNC(=O)CC(c2cncc(F)c2)C2(C(F)(F)F)CC2)N(C)C)c(Cl)c1 (stereo partly shown) [Compound 116] | < 300 nM |
| CNC(=O)c1ccc(C[C@@H](CNC(=O)CC(c2cncc(OC)c2)C2(C(F)(F)F)CC2)N(C)C)c(Cl)c1 (stereo partly drawn) [Compound 117, 3-chloro-4-((2S)-2-(dimethylamino)-3-(3-(5-methoxypyridin-3-yl)-3-(1-(trifluoromethyl)cyclopropyl)propanamido)propyl)-N-methylbenzamide] | > 3000 nM |
| CNC(=O)c1ccc(C[C@@H](CNC(=O)CC(c2cc(C)ccn2)C2(C(F)(F)F)CC2)N(C)C)c(Cl)c1 (stereo partly drawn) [Compound 118, 3-chloro-4-((2S)-2-(dimethylamino)-3-(3-(4-methylpyridin-2-yl)-3-(1-(trifluoromethyl)cyclopropyl)propanamido)propyl)-N-methylbenzamide] | > 3000 nM |
| CNC(=O)c1ccc(C[C@@H](CNC(=O)CC(c2cccnc2)C2(C(F)(F)F)CC2)N(C)C)c(Cl)c1 (stereo partly drawn) [Compound 119, 3-chloro-4-((2S)-2-(dimethylamino)-3-(3-(pyridin-3-yl)-3-(1-(trifluoromethyl)cyclopropyl)propanamido)propyl)-N-methylbenzamide] | < 300 nM |
| CNC(=O)c1ccc(C[C@@H](CNC(=O)CC(c2ncccc2F)C2(C(F)(F)F)CC2)N(C)C)c(Cl)c1 (stereo partly drawn) [Compound 120, 3-chloro-4-((2S)-2-(dimethylamino)-3-(3-(3-fluoropyridin-2-yl)-3-(1-(trifluoromethyl)cyclopropyl)propanamido)propyl)-N-methylbenzamide] | < 300 nM |
| CNC(=O)c1ccc(C[C@@H](CNC(=O)CC(c2ccc(F)cn2)C2(C(F)(F)F)CC2)N(C)C)c(Cl)c1 (stereo partly drawn) [Compound 121, 3-chloro-4-((2S)-2-(dimethylamino)-3-(3-(5-fluoropyridin-2-yl)-3-(1-(trifluoromethyl)cyclopropyl)propanamido)propyl)-N-methylbenzamide] | < 300 nM |
| CNC(=O)c1ccc(C[C@@H](CNC(=O)CC(c2ccc(Cl)cn2)C2(C(F)(F)F)CC2)N(C)C)c(Cl)c1 (stereo partly drawn) [Compound 122, 3-chloro-4-((2S)-3-(3-(5-chloropyridin-2-yl)-3-(1-(trifluoromethyl)cyclopropyl)propanamido)-2-(dimethylamino)propyl)-N-methylbenzamide] | < 300 nM |
| CNC(=O)c1ccc(C[C@@H](CNC(=O)C[C@H](c2cnc(C)s2)C2(C(F)(F)F)CC2)N(C)C)c(F)c1 [Compound 123, 4-((S)-2-(dimethylamino)-3-((S)-3-(2-methylthiazol-5-yl)-3-(1-(trifluoromethyl)cyclopropyl)propanamido)propyl)-3-fluoro-N-methylbenzamide] | < 300 nM |
| CNC(=O)c1ccc(C[C@@H](CNC(=O)C[C@H](c2ccc(C)nc2)C2(C(F)(F)F)CC2)N(C)C)c(C)c1F [Compound 125, 4-((S)-2-(dimethylamino)-3-((R)-3-(6-methylpyridin-3-yl)-3-(1-(trifluoromethyl)cyclopropyl)propanamido)propyl)-2-fluoro-N,3-dimethylbenzamide] | < 300 nM |
| CNC(=O)c1ccc(C[C@@H](CNC(=O)C[C@@H](CC(C)C)c2cccnc2)N(C)C)c(C)c1 [Compound 126, 4-((S)-2-(dimethylamino)-3-((R)-5-methyl-3-(pyridin-3-yl)hexanamido)propyl)-N,3-dimethylbenzamide] | > 3000 nM |
| CNC(=O)c1ccc(C[C@@H](CNC(=O)C[C@H](c2ccncc2F)C2(C(F)(F)F)CC2)N(C)C)c(C)c1 [Compound 127, 4-((S)-2-(dimethylamino)-3-((R)-3-(3-fluoropyridin-4-yl)-3-(1-(trifluoromethyl)cyclopropyl)propanamido)propyl)-N,3-dimethylbenzamide] | < 300 nM |
| CNC(=O)c1ccc(C[C@@H](CNC(=O)C[C@H](c2ccc(F)cc2)C2(C(F)(F)F)CC2)N(C)C)c(C)c1 [Compound 128, 4-((S)-2-(dimethylamino)-3-((R)-3-(4-fluorophenyl)-3-(1-(trifluoromethyl)cyclopropyl)propanamido)propyl)-N,3-dimethylbenzamide] | < 300 nM |
| CNC(=O)c1ccc(C[C@@H](CNC(=O)C[C@H](c2cccnc2)C(C)(C)C)N(C)C)c(C)c1 [Compound 129, 4-((S)-3-((S)-4,4-dimethyl-3-(pyridin-3-yl)pentanamido)-2-(dimethylamino)propyl)-N,3-dimethylbenzamide] | < 300 nM |
| CNC(=O)c1ccc(C[C@@H](CNC(=O)C[C@H](c2cccnc2)C2(C(F)(F)F)CC2)N(C)C)c(C)c1 [Compound 131, 4-((S)-2-(dimethylamino)-3-((R)-3-(pyridin-3-yl)-3-(1-(trifluoromethyl)cyclopropyl)propanamido)propyl)-N,3-dimethylbenzamide] | < 300 nM |
| CNC(=O)c1ccc(C[C@@H](CNC(=O)C[C@H](c2ccc(C)nc2)C2(C(F)(F)F)CC2)N(C)C)c(C)c1 [Compound 132, 4-((S)-2-(dimethylamino)-3-((R)-3-(6-methylpyridin-3-yl)-3-(1-(trifluoromethyl)cyclopropyl)propanamido)propyl)-N,3-dimethylbenzamide] | < 300 nM |
| CNC(=O)c1ccc(C[C@@H](CNC(=O)C[C@@H](CC2CC2)c2cccnc2)N(C)C)c(C)c1 [Compound 133, 4-((S)-3-((R)-4-cyclopropyl-3-(pyridin-3-yl)butanamido)-2-(dimethylamino)propyl)-N,3-dimethylbenzamide] | > 3000 nM |
| CNC(=O)c1ccc(C[C@@H](CNC(=O)CC(c2ccncc2)C2(C(F)(F)F)CC2)N(C)C)c(C)c1 (stereo partly drawn) [Compound 134, 4-((2S)-2-(dimethylamino)-3-(3-(pyridin-4-yl)-3-(1-(trifluoromethyl)cyclopropyl)propanamido)propyl)-N,3-dimethylbenzamide] | < 300 nM |
| CNC(=O)c1ccc(C[C@@H](CNC(=O)C[C@H](CC2CC2)c2ccccn2)N(C)C)c(C)c1 [Compound 139, 4-((S)-3-((S)-4-cyclopropyl-3-(pyridin-2-yl)butanamido)-2-(dimethylamino)propyl)-N,3-dimethylbenzamide] | > 3000 nM |
| CNC(=O)c1ccc(C[C@@H](CNC(=O)C[C@@H](CC(C)C)c2ccccn2)N(C)C)c(C)c1 [Compound 140, 4-((S)-2-(dimethylamino)-3-((R)-5-methyl-3-(pyridin-2-yl)hexanamido)propyl)-N,3-dimethylbenzamide] | > 3000 nM |

Same assay, conditions: read-out: mOR cAMP Antagonist Assay IC50

| SMILES | IC50 |
| --- | --- |
| CNC(=O)c1ccc(C[C@@H](CNC(=O)CC(c2ccc(OC)nc2)C2(C(F)(F)F)CC2)N(C)C)c(Cl)c1 (stereo partly drawn) [Compound 115, 3-chloro-4-((2S)-2-(dimethylamino)-3-(3-(6-methoxypyridin-3-yl)-3-(1-(trifluoromethyl)cyclopropyl)propanamido)propyl)-N-methylbenzamide] | 300 to 3000 nM |
| CNC(=O)c1ccc(C[C@@H](CNC(=O)C[C@H](c2cnc(C)nc2)C2(C(F)(F)F)CC2)N(C)C)c(C)c1 [Compound 135, 4-((S)-2-(dimethylamino)-3-((R)-3-(2-methylpyrimidin-5-yl)-3-(1-(trifluoromethyl)cyclopropyl)propanamido)propyl)-N,3-dimethylbenzamide] | > 3000 nM |
